Five compounds from patent US20170281575A1, “BLT2 AGONISTS FOR THE TREATMENT OF PAIN” (FRAUNHOFER-GESELLSCHAFT ZUR FÖERDERUNG DER ANGEWANDTEN …, priority 2014, published 2017) can be followed below.

The subject of one test is mice. Nature of the test: Thermal pain thresholds after intraplantar injection (Hargreaves, radiant heat). It is filed as in vivo. To be noted: CAY10583 10 μl, 5 μM intraplantarly, compared to vehicle. The method, then:
FIG. 5: BLT2 activation decreases thermal pain thresholds in mice. CAY10583 (10 μl, 5 μM) or vehicle was administered intraplantarly. Thermal thresholds were determined at the indicated time points. Data are presented as mean±S.E.M. of 6 animals. Two way ANOVA/Bonferroni *P<0.05, **P<0.005, ****P<0.0005.
All animal experiments were performed according to the recommendations in the Guide for the Care and Use of Laboratory Animals of the National Institutes of Health and approved by the local Ethics Committees for Animal Research (Darmstadt). For all behavioral experiments the inventors used only 6-12 weeks old male C57BL/6N mice purchased from commercial breeding companies (Charles River, Sulzfeld, Germany, Janvier, Le Geneset-Saint-Isle, FR). To compare mechanical thresholds the inventors used age and sex matched littermates as control.
For the determination of mechanical allodynia or thermal hypersensitivity, mice were kept in test cages on an elevated grid for at least 2 hours to allow accommodation. […] The non-injected and injected paws were measured alternately in intervals of 5-10 min. […]

The test system of the next test is TRPV1. Nature of the test: Calcium imaging of capsaicin double-stimulated DRG neurons (TRPV1 sensitization). It counts as cell-based, murine. Conditions: for effect on TRPV1 sensitization by LTB4 (100 nM or 1 μM), FIG. 3 legend: U73502 1 μM; for effect on TRPV1 sensitization by LTB4 (100 nM or 1 μM), FIG. 3 legend / effect on TRPV1 sensitization induced by 100 nM LTB4: CAY10583 400 nM; for effect on TRPV1 sensitization induced by 100 nM LTB4: U75302 1 μM, 2 minute pretreatment. The method, then: (A) DRG neurons were double stimulated with capsaicin (200 nM, 15 s each) and incubated with either vehicle or LTB4 (100 nM) for two minutes prior to the second capsaicin stimulation. (B) Dose-dependent difference in ratio between the first and the second capsaicin response using the same protocol as described in (A). Data represent the mean±SEM of the following number of neurons (n=20-86); ANOVA Kruskal-Wallis test; Dunn's multiple comparisons test *p<0.05, ****p<0.0001 student's t-test.
FIG. 3: BLT1 mediates TRPV1-sensitization and BLT2 mediates TRPV1-desensitization by LTB4. (A) DRG neurons were double stimulated with capsaicin (200 nM, 15 s each) and incubated with either vehicle or the indicated compounds for two minutes prior to the second capsaicin stimulation. […] Data represent mean±SEM 20-105 cells. ANOVA Kruskal-Wallis test; Dunn's multiple comparisons test *p<0.05, **p<0.01, ****p<0.0001 student's t-test; n.s. not significant.
FIG. 4: BLT2 activation inhibits […] by EP4 and Bradykinin. (A) DRG neurons were double stimulated with capsaicin (200 nM, 15 s each) and incubated with either the EP4 agonist ONOae329 (500 nM) or with ONOae329 and CAY10583 (400 nM) together for two minutes prior to the second capsaicin stimulation. (B) Difference in ratio between the first and the second capsaicin response using the same protocol as described in panel A. Data represent the mean±SEM of the following number of neurons: 52 (vehicle), 109 (ONOae329), 106 (ONOae329+CAY10583); One-Way ANOVA, Dunn's multiple comparisons test; **p<0.0096. (C+D) same as panel A+B except that 500 nM bradykinin was used for TRPV1 sensitization. Data represent the mean±SEM of the following number of neurons: 33 (vehicle), 83 (bradykinin), 93 (bradykinin+CAY10583); One-Way ANOVA, Holm-Sidak's multiple comparisons test; *p=0.0126
Murine DRGs were dissected from spinal segments and directly transferred to ice cold HBSS with CaCl2 and MgCl2 (Invitrogen, Carsbad, Calif., USA). Next, isolated DRGs were incubated with collagenase/dispase (500 U/ml Collagenase; 2.5 U/ml Dispase) in neurobasal medium containing L-glutamine [2 mM] penicillin (100 U/ml), streptomycin (100 μg/ml), B-27 and gentamicin (50 μg/ml) (all from Invitrogen, Carlsbad, Calif., USA) at 37° C. for 75 min. After removal of the collagenase/dispase-solution, cells were washed twice with neurobasal medium containing 10% FCS and incubated for 10 min with 0.05% trypsin (Invitrogen, Carlsbad, Calif., USA). The washing steps were repeated and the cells were mechanically dissociated with a 1 ml Gilson pipette. Finally, the neurons were plated on poly-l-lysine (Sigma, Deisenhofen, Germany) coated glass cover slips and incubated with neurobasal medium containing L-glutamine [2 mM] penicillin (100 U/ml), streptomycin (100 μg/ml), B-27 and gentamicin (50 μg/ml) over night until assessment by calcium imaging.
Calcium-Imaging experiments were performed as published previously. Briefly, Leica Calcium-imaging setup was used, consisting of a Leica DMI 4000 b inverted microscope equipped with a DFC360 FX (CCD-) camera, Fura-2 filters and an N-Plan 10×/0.25 Ph1 objective (all from Leica Microsystems, Wetzlar, Germany). Images were taken every 2 seconds and processed with the LAS AF-software. For each experiment the inventors chose an area with large cell numbers and monitored 40-110 cells simultaneously. Calcium-Imaging experiments were performed using DRG-neurons 24-48 hours after preparation. […]

[1] abbreviates: DRG neurons, capsaicin 200 nM, LY2552833 10 μM.

As to `CCCCC(=O)N(Cc1ccc(-c2ccccc2C(=O)O)cc1)c1ccccc1` [CAY10583, 4′-[[(1-oxopentyl)phenylamino]methyl]-[1,1′-biphenyl]-2-carboxylic acid], the thermal pain thresholds entry in the test with mice was “significantly increase”. The “effect on bradykinin-induced sensitization of TRPV1 through PKC” value in the test with TRPV1 (DRG neurons, 500 nM bradykinin with CAY10583 400 nM) is reported as “significantly decreased”. In addition, the “effect on TRPV1 sensitization by LTB4 (100 nM or 1 μM), FIG. 3 legend” value (shortened to “effect on TRPV1 sensitization by LTB4”) with TRPV1 (DRG neurons, LY2552833 10 μM) is listed as “reduced”. Also, in the test on TRPV1 (DRG neurons, capsaicin 200 nM, CAY10583 400 nM alone), the “effect by itself on capsaicin-induced TRPV1 activation” value was “no effect”. Besides, the “effect on TRPV1 sensitization induced by 100 nM LTB4” value (shortened to “effect … by 100 nM LTB4”) in the test on TRPV1 (setting [1]) is given as “abolished”. Besides, in the test with TRPV1 (murine DRG neurons, ONOae329 500 nM together with CAY10583 400 nM), the “effect on ONOae329-induced TRPV1 sensitization” value is recorded as “abolished”.
Turning to `CCCCC/C=C\C[C@@H](O)/C=C/C=C/C=C\[C@@H](O)CCCC(=O)O` [LTB4, Leucotriene (LT) B4], the “TRPV1 sensitization in DRG neurons, dose dependence, FIG. 1 legend” value in the test on TRPV1 (DRG neurons, capsaicin 200 nM double stimulation) is reported as “dose dependently sensitizes TRPV1”. The “enhanced response (TRPV1 sensitization) at higher LTB4 concentrations” value with TRPV1 (murine DRG neurons, 200-1000 nM LTB4 prior to second capsaicin stimulation) is given as “reduced”. The “capsaicin-induced intracellular calcium increases” value in the test with TRPV1 (murine DRG neurons, preincubation with 100 nM LTB4 for two minutes prior to second capsaicin (200 nM) stimulation) is “doubled”.
Regarding `CCc1cc(C(C)=O)c(O)cc1OCCCCCC(C)(C)c1nn[nH]n1` [LY2552833], in the test on TRPV1 (DRG neurons, LY2552833 10 μM), the “effect on TRPV1 sensitization by LTB4” value is “increases TRPV1 sensitization”. In addition, in the test on TRPV1 (setting [1]), the “effect on TRPV1 sensitization by 1000 nM LTB4” value is “increased” and the “effect … by 100 nM LTB4” value is “no significant effect”.
For the compound `COCc1ccccc1CC[C@H](O)/C=C/[C@H]1[C@H](O)CC(=O)[C@@H]1SCCCSCC(=O)O` [ONOae329], the “sensitization of TRPV1 responses to capsaicin” value in the test with TRPV1 (murine DRG neurons, pretreatment with ONOae329 500 nM) is reported as “strong sensitization”.
For the compound `CCCCC/C=C\C[C@@H](O)/C=C/c1cccc(C[C@@H](O)CCCCO)n1` [U75302, 6-(6-(3R-hydroxy-1E,5Z-undecadien-1-yl)-2-pyridinyl)-1,5S-hexanediol], the “effect on TRPV1 sensitization by LTB4” value with TRPV1 (DRG neurons, LY2552833 10 μM) is “reduced”. In addition, in the test with TRPV1 (setting [1]), the “effect … by 100 nM LTB4” value was “able to abolish”.
